The values below come from ChEMBL document CHEMBL1201862, “PubChem BioAssay data set” (2004).

SMILES strings stand for the structures. Calls of active or inactive are those of the source. Some results are limits rather than exact numbers.

Assay [1] addresses Cytochrome P450 2C9 (Homo sapiens, UniProt P11712). Conditions: Potency.
Assay [2] addresses Cytochrome P450 2D6 (Homo sapiens, UniProt P10635). Nature of the assay: qHTS Assay for Inhibitors and Substrates of Cytochrome P450 2D6. [Related pubchem assays: 410 ]. It counts as ADME. Conditions: read-out: Potency. For orientation: qHTS replaces the single test concentration by a dilution series.
Assay [3] deals with Scavenger receptor class B member 1 (Mus musculus, UniProt Q61009). Put plainly: inhibitors of SR-BI mediated HDL lipid uptake, dose response, ldlA[mSR-BI] cells, fluorescence, cherry pick (AID 493194).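 Also: cellular uptake of fluorescent DiI-labeled HDL measured as cell fluorescence.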 The assay is classed as functional, cell-based.
Assay [4] is described as follows: cytotoxicity in MIN6 insulinoma cells, dose response, cytotoxicity control, cell-based, mouse insulinoma (AID 2122).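 Also: confirmatory high-throughput counterscreen run to flag cytotoxic compounds; mouse MIN-6 beta cells carrying an insulin promoter eGFP reporter.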 The assay is classed as functional.
Assay [5] has as its target Paired box protein Pax-8 (Homo sapiens, UniProt Q06710). Put plainly: inhibitors of PAX8-driven TPO luciferase reporter, dose response, RMG-I cells, cherry-pick (AID 687027).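 Also: luciferase reporter driven by Pax8 target thyroperoxidase promoter measured by SteadyGlo luminescence.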 The assay is classed as functional, cell-based.
In assay [6] the test system is INS1. Put plainly: beta cell apoptosis inhibitors, cytokine rescue, dose response, luminescence, retest (AID 449756).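 Also: cell death triggered by IL-1 beta plus TNF-alpha plus IFN-gamma mixture; protective hits raise ATP signal compared with cytokine alone wells.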 It counts as functional, cell-based. Conditions: Rattus norvegicus.
Assay [7] can be described thus: insulin promoter down-regulators in MIN6 cells, imaging, high-content screening, mouse beta cells (AID 1628). It counts as functional.
Assay [8] is described as follows: Shn3 3'UTR reporter inhibitors, dose response, cell-based, Clone20 osteoblasts, firefly luciferase, cherry-picked (AID 624132).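 Also: firefly luciferase luminescence from reporter carrying the Shn3 3'UTR in osteoblasts.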 It counts as functional.
The nature of assay [9]: HepG2 cell cytotoxicity, dose response, cytotoxicity control for Shn3 inhibitor project, CellTiter-Glo, cherry-picked (AID 624134). It counts as functional, cell-based.
For assay [10], the target named is Aspartyl aminopeptidase (Plasmodium falciparum 3D7, UniProt Q8I2J3).
Assay [11] addresses Procathepsin L (Homo sapiens, UniProt P07711).
Assay [12] concerns the target T1, Corticotropin-releasing factor receptor 2/Corticotropin-releasing factor-binding protein (Homo sapiens, UniProt P24387+Q13324).
T1 sequence (Q13324 whole entry): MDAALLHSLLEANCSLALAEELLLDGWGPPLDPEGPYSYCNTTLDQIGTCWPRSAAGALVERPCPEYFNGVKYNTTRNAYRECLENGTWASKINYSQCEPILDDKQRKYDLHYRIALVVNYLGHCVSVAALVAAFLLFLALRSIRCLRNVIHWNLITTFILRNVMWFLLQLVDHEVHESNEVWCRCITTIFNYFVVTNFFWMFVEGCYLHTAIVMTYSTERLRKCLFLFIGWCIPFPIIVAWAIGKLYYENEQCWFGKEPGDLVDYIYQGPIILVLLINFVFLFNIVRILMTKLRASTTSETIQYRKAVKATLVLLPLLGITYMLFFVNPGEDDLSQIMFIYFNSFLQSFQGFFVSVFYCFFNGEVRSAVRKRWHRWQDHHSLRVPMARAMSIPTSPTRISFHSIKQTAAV
T1 sequence (P24387 whole entry): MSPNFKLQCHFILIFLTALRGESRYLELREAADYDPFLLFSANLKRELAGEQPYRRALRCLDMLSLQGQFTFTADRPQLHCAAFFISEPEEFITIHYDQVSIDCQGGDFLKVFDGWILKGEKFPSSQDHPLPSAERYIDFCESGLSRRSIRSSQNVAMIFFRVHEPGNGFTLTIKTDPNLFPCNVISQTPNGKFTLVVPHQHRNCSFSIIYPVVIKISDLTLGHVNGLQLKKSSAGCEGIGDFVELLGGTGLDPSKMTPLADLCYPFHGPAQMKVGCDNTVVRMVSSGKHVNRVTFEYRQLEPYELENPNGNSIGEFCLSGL
Put plainly: Dose Response confirmation of uHTS hits for small molecule antagonists of the CRF-binding protein and CRF-R2 receptor complex. It counts as functional. Conditions: read-out: IC50_Mean.

Assay [13] addresses T1, Corticotropin-releasing factor receptor 2/Corticotropin-releasing factor-binding protein. Nature of the assay: activators of CRF receptor 2 with binding protein – uHTS hits, confirmation (AID 602473). It counts as functional. Conditions: read-out: EC50_Mean.
Assay [14] can be described thus: CRF-BP/CRF-R2 complex antagonists, dose response, cell-based, uHTS hits, 384-well (AID 651639). It counts as functional, Homo sapiens. Conditions: read-out: IC50_Mean.
Assay [15] addresses Aminopeptidase N (Plasmodium falciparum FcB1/Columbia, UniProt O96935). Put plainly: P. falciparum M1AAP inhibitors, biochemical, fluorogenic H-Leu-NHMec substrate, 1536-well (AID 1445). Also noted: species or system Plasmodium falciparum 3D7, 3D7.
The target in assay [16] is Beta-galactosidase (Escherichia coli, UniProt Q8VNN2). Put plainly: beta-galactosidase enzyme inhibitors and activators, dose response, artefact control for CCR6 antagonist project, biochemical, E. coli enzyme, set 3 (AID 504712). It counts as functional.
Assay [17] has as its target C-C chemokine receptor type 6 (Homo sapiens, UniProt P51684). Put plainly: CCR6 receptor antagonists, dose response, cell-based, luminescent beta-arrestin readout (AID 504728). The assay is classed as functional.
A short description of assay [18]: Counterscreen for IDE inhibitors: Luminescence-based cell-based high throughput dose response assay to identify compounds that are cytotoxic to HEK cells. [Related pubchem assays: 434962 (Primary screen (IDE inhibitors in singlicate)), 449730 (Counterscreen (Cytotoxicity in triplicate)), 435028 (Confirmation (IDE inhibitors in triplicate)) …. It counts as functional. Conditions: HEK293. Background: The purpose of a counterscreen is to sort out artefacts and off-target activity.

The target in assay [19] is T2, Insulin-degrading enzyme (Homo sapiens, UniProt P14735).
T2 sequence (P14735 whole entry): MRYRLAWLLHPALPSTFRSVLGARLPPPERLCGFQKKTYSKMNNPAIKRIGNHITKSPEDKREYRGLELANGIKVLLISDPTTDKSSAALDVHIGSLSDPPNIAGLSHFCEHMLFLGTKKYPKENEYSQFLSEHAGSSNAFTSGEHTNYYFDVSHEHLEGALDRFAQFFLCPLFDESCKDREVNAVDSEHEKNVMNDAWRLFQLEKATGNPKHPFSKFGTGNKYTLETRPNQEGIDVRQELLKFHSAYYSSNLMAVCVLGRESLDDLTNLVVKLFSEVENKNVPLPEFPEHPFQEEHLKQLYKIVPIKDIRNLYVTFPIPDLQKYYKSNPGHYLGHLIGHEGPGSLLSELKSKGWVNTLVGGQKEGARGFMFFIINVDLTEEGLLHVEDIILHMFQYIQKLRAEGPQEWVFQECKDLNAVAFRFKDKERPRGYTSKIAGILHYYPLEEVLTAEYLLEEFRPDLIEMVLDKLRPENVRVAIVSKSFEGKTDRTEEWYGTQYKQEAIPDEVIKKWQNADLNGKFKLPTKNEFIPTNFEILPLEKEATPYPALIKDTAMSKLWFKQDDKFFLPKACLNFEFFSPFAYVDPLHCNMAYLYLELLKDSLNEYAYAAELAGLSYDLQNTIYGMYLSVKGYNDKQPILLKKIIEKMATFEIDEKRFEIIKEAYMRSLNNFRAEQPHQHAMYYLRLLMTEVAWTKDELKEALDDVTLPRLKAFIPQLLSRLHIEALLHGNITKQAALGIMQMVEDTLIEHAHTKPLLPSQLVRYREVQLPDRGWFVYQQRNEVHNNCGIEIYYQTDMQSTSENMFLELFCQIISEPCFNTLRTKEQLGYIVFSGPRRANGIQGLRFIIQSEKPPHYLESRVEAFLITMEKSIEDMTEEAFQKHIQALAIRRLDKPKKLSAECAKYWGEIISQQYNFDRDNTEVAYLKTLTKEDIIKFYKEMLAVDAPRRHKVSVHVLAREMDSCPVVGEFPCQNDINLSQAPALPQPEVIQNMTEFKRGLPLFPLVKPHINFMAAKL
Put plainly: Dose Response: Fluorescence polarization-based cell-based high throughput dose response assay for inhibitors of insulin-degrading enzyme (IDE). [Related pubchem assays: 434962 (Primary screen (IDE inhibitors in singlicate)), 449730 (Counterscreen (Cytotoxicity in triplicate)), 435028 (Confirmation (IDE inhibitors in triplicate)), 434984 (Summary …. It counts as functional.

The nature of assay [20]: A Cell Based Secondary Assay To Explore Cytotoxicity of Compounds that Sensitize Mycobacterium Tuberculosis to Beta-Lactam Antibiotics. The assay is classed as functional.
The target in assay [21] is Serine/threonine-protein phosphatase PP1-alpha catalytic subunit (Homo sapiens, UniProt P62136). Nature of the assay: PP1 phosphatase inhibitors, dose response, biochemical, fluorescence (AID 2403).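 Also: phosphatase turnover of OMFP into fluorescent 3-O-methylfluorescein.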
Assay [22] concerns the target T3, Serine/threonine-protein phosphatase (Homo sapiens, UniProt Q9BPW0).
T3 sequence (Q9BPW0 whole entry): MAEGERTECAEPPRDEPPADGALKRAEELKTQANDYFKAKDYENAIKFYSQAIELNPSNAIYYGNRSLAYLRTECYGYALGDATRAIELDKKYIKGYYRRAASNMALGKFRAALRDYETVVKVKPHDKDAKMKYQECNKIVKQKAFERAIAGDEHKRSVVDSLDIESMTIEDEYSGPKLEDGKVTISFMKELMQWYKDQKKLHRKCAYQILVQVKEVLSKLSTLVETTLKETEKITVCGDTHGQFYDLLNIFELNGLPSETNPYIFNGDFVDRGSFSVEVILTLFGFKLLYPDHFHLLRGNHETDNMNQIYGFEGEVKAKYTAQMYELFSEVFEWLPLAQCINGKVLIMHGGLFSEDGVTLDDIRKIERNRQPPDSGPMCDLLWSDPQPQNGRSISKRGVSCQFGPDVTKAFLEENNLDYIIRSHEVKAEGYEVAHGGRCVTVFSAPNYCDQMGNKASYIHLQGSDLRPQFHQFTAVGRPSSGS
Put plainly: Counterscreen for inhibitors of PP1: fluorescence-based biochemical high throughput dose response assay to identify inhibitors of Protein Phosphatase 5 (PP5). [Related pubchem assays: 2034 (Summary (PP5 inhibitors)), 1987 (PP5 inhibitors in singlate), 2235 (PP1 inhibitors in singlate)].

Chain of Aminopeptidase N (O96935 whole entry): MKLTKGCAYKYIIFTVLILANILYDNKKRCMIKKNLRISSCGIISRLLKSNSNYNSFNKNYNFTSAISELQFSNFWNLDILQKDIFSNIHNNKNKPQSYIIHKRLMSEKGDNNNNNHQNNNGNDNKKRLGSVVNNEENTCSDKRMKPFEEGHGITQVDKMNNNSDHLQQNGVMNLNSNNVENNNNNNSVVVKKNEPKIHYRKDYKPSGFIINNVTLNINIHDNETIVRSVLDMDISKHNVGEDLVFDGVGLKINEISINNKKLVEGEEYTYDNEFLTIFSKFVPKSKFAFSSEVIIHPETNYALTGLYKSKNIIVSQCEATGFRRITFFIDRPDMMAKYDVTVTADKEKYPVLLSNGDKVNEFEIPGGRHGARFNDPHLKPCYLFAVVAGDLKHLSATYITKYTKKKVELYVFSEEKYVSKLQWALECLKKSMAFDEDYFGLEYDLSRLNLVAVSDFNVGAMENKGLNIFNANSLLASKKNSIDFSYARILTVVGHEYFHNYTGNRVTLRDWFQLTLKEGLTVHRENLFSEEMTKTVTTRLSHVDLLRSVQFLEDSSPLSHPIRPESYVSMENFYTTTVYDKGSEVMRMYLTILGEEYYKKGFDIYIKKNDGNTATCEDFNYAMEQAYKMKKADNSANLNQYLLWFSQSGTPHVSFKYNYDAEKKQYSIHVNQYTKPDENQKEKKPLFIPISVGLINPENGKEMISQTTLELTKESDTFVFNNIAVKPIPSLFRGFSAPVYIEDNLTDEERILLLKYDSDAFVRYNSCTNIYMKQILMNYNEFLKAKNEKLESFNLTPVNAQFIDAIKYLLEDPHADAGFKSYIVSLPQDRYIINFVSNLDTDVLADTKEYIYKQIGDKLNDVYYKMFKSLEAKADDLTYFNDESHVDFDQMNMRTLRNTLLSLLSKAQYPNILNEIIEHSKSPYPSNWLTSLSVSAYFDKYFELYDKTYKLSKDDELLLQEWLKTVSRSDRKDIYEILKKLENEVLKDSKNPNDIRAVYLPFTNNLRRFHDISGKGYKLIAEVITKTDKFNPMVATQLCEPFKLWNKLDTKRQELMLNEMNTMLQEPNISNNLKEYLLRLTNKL
Chain of Scavenger receptor class B member 1 (Q61009 whole entry): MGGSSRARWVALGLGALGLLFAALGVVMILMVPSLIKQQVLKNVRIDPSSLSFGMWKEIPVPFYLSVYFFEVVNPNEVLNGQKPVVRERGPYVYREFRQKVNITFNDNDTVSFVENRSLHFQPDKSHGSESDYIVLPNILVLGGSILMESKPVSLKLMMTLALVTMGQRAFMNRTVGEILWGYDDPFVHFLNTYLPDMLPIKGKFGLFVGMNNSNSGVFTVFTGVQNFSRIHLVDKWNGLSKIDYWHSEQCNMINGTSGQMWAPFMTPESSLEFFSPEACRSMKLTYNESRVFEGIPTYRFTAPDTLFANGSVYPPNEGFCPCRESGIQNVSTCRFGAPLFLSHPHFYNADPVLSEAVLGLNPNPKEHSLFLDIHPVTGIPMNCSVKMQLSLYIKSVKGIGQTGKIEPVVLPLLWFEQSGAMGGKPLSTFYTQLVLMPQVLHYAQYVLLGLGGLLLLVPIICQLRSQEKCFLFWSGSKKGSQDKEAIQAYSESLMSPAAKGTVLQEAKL
Chain of Cytochrome P450 2D6 (P10635 whole entry): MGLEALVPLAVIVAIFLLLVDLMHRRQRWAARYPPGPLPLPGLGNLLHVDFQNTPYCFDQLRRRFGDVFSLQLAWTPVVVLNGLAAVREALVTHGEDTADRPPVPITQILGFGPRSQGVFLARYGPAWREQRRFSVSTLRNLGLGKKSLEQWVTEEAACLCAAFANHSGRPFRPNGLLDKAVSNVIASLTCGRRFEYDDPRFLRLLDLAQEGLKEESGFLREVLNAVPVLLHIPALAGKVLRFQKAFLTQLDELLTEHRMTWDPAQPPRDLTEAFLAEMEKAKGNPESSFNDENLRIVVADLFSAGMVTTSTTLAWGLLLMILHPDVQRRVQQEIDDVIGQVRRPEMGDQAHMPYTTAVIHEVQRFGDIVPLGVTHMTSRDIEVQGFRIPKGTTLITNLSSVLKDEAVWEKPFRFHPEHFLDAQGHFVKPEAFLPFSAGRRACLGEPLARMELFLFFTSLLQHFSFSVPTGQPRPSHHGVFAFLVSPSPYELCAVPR
Chain of Cytochrome P450 2C9 (P11712 whole entry): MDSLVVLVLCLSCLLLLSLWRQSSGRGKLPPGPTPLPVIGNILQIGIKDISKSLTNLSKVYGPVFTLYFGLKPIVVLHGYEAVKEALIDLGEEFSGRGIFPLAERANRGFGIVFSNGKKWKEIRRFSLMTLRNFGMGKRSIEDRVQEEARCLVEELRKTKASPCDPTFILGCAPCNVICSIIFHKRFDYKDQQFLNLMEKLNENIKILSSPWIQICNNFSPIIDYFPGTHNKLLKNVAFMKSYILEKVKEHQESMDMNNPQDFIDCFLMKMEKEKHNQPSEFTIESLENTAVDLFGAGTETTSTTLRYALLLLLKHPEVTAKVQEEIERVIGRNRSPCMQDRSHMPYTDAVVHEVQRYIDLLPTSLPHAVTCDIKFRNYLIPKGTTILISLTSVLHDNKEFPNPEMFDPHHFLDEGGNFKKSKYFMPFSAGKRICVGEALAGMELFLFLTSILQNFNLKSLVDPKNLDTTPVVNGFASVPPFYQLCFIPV
Chain of Aspartyl aminopeptidase (Q8I2J3 whole entry): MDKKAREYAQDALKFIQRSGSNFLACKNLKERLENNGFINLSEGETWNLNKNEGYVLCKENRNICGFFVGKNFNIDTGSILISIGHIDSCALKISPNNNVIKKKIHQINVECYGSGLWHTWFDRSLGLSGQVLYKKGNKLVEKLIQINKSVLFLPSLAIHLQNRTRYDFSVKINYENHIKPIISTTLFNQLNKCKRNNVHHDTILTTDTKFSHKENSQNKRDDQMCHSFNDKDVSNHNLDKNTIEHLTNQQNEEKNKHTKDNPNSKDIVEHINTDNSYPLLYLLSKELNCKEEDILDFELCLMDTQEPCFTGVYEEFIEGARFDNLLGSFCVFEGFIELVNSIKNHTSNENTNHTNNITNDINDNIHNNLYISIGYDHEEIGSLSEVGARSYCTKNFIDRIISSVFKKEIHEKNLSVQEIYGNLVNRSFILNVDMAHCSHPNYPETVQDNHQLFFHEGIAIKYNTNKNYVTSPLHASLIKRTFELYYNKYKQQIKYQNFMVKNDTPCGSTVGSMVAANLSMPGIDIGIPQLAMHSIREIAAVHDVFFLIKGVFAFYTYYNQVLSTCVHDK
Chain of Paired box protein Pax-8 (Q06710 whole entry): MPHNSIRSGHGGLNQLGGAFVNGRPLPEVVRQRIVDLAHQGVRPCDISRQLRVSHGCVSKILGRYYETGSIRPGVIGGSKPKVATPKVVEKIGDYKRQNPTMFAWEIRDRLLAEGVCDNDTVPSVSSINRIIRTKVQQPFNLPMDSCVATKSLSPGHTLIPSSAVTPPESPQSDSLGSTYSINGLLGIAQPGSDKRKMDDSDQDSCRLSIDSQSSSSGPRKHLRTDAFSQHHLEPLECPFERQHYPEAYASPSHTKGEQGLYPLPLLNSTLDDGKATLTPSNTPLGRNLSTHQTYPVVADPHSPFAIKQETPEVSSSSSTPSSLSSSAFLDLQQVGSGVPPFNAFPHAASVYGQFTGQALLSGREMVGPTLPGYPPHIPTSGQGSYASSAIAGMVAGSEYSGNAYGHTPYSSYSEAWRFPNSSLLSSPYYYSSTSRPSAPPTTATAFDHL
Chain of Procathepsin L (P07711 whole entry): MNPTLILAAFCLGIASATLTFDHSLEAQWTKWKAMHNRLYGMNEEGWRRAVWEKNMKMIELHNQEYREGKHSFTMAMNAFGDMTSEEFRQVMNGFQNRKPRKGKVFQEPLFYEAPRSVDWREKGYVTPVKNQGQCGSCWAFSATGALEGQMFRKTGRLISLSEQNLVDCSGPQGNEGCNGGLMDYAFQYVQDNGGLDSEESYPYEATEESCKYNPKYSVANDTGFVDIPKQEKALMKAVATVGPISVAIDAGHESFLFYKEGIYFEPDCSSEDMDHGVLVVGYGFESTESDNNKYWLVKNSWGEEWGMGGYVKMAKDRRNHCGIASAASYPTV
Chain of C-C chemokine receptor type 6 (P51684 whole entry): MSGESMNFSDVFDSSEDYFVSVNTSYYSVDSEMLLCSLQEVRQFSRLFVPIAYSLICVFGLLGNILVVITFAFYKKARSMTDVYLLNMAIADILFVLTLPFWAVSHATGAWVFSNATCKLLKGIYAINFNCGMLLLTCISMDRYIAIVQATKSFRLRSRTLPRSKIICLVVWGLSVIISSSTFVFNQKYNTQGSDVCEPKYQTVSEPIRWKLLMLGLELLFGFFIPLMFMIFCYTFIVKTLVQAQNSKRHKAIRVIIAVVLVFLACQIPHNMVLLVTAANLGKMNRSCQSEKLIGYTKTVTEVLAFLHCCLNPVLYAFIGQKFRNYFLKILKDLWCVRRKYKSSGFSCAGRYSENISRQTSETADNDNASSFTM
Chain of Serine/threonine-protein phosphatase PP1-alpha catalytic subunit (P62136 whole entry): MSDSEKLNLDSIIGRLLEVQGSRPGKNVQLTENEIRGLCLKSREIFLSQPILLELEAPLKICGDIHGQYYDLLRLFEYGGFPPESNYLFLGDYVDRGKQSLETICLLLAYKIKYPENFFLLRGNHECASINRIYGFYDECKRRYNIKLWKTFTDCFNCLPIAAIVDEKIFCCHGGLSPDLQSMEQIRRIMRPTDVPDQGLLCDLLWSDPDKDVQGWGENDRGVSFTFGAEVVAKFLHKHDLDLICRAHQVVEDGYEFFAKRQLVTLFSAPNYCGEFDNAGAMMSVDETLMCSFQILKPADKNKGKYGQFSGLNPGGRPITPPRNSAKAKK

Consider `COc1ccc2c(c1OC)C(=O)O[C@@H]2[C@H]1c2cc3c(cc2CCN1C)OCO3` [HYDRASTINE], for which the results for the AC50 in [1] and in [2] were 25.1 µM (inconclusive) and 39.8 µM (inconclusive), respectively.

On to `COc1cccc(N(CC(=O)NC2CCCC2)C(=O)Cn2nnc(-c3ccc(C)cc3)n2)c1`, for which the AC50 in assay [3] was 234 µM (active).

In the case of `O=C(Nc1ccc(Cl)cc1)Nc1ccc(N2CCCC2)c(S(=O)(=O)Nc2ccccc2Cl)c1`, the IC50 is > 16 µM (inactive) in assay [4] and 4.47 µM (active) in [7]. Further, the AC50 in [3] was 23.5 µM (active); in [5] it was 5.13 µM (active); in assay [6], 6.99 µM (active); in assay [8], 5.2 µM (active); in assay [9], 7.06 µM (active).

In the case of `CC1=C([N+](=O)[O-])C(c2ccc(O)c(O)c2)NC(=O)N1` (centres undefined), the figures for the IC50 in assay [10] and in assay [11] were 0.864 µM (active) and > 59.6 µM (not active), respectively.

Regarding `O=C(ON=C1CCN(c2ccc([N+](=O)[O-])cc2)CC1)c1ccccc1`, the results for the IC50 in [12], in assay [14] and in assay [15] were 2.74 µM (active), > 20 µM (inactive) and 45.2 µM (active), respectively. Moreover, the EC50 in assay [13] was > 53 µM (inactive).

As for `C/C(CCC12CC3CC(CC(C3)C1)C2)=N\NC(N)=S`, the results for the IC50 in [16] and in [17] were > 66.6 µM (inactive) and 50.4 µM (inactive), respectively.

`CC(=O)OCC1OC(C#Cc2ccc(F)cc2F)C=CC1OC(C)=O` (centres undefined): the AC50 in assay [2] was 6.31 µM (inconclusive).

As for `C[C@H](CCC(=O)O)[C@H]1CC[C@H]2[C@@H]3[C@@H](O)C[C@@H]4C[C@H](O)CC[C@]4(C)[C@H]3CC[C@]12C` [URSODIOL], in assay [15], the IC50 was 2.6 µM (active).

For `Cc1c(OC(C)C(=O)NCc2ccncc2)ccc2c3c(c(=O)oc12)CCCC3` (centres undefined), the IC50 is given as 15.5 µM (not active) in [18] and > 55.9 µM (not active) in assay [19].

For the molecule `COc1ccc(-c2coc3ccc(O[C@@H]4O[C@@H](COC(C)=O)[C@@H](OC(C)=O)[C@@H](OC(C)=O)[C@H]4OC(C)=O)cc3c2=O)cc1`, in [1], the AC50 was 20 µM (inconclusive).

For the molecule `CN(c1ccc(C(=O)Nc2ccccc2Sc2ccccc2)cc1)S(C)(=O)=O`, the CC50 (usually the concentration giving 50% cytotoxicity) in assay [20] was > 40 µM (active).

`COc1cnc(-c2ccccn2)nc1Sc1ccc(C)cc1`: the IC50 in assay [21] is 6.95 µM (active); in assay [22] it was > 67 µM (not active). The AC50 in [6] is 5.03 µM (active).

For `CCOC(=O)N1CCN(c2ccnc3cc(Cl)ccc23)CC1`, the IC50 in assay [18] is listed as 15.7 µM (not active); in assay [19], 18.9 µM (not active).
